These results are taken from publication PMC8457121, “From Kinase Inhibitors to Multitarget Ligands as Powerful Drug Leads for Alzheimer's Disease using Protein‐Templated Synthesis” (Angewandte Chemie (International Ed. in English), 2021).

This assay has as its target BACE1 (Homo sapiens, UniProt P56817). Briefly: In situ click chemistry with BACE1 as template (LC/MS-SIM). Particulars: BACE1 0.5 μM, reagents 100 μM, 24 h, room temperature, sodium acetate pH 4.5. How it is done:
confirmed by molecular weight. Control experiments in the absence of BACE1 were set up every time the reactions were performed. Experiment with the presence of BSA (1 mg mL−1) instead of the BACE1 enzyme was performed for […]
LRRK2 inhibition enzymatic assay. The LRRK2 inhibitors were evaluated by the ThermoFisher company under the following Adapta Assay. The assay itself can be divided into two phases: a kinase reaction phase, and an ADP detection phase. In the kinase reaction phase, all components required for the kinase reaction are added to the well, and the reaction is allowed to incubate for 60 minutes. After the reaction, a detection solution consisting of a europium labeled anti-ADP antibody, an Alexa Fluor™ 647 labeled ADP tracer, and EDTA (to stop the kinase reaction) is added to the assay well. ADP formed by the kinase reaction (in the absence of an inhibitor) will displace the Alexa Fluor 647 labeled ADP tracer from the antibody, resulting in a decrease in the TR-FRET signal. In the presence of an inhibitor, the amount of ADP formed by the kinase reaction is reduced, and the resulting intact antibodytracer interaction results in a high TR-FRET signal. ADP formation is determined by calculating the emission ratio from […]
The 2X LRRK2 / ERM (LRRKtide) mixture is prepared in 50 mM Tris pH 8.5, […]
Reaction consists of 3.75 - 70 ng LRRK2 and 200 μM ERM (LRRKtide) in 25 mM […]
NaN3. […]

Chain of BACE1 (P56817 46-501): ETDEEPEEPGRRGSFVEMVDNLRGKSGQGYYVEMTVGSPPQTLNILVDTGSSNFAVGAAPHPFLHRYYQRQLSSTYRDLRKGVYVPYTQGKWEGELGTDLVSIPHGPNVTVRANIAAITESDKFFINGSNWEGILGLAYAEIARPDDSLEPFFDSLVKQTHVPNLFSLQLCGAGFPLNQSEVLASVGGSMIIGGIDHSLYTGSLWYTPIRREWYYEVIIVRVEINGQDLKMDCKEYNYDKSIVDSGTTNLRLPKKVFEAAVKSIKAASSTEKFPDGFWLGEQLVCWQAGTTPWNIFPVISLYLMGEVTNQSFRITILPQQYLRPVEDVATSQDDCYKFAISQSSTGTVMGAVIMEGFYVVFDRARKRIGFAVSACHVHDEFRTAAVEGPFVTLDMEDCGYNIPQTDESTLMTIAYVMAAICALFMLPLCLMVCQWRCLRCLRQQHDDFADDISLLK

For `O=C(Nc1nc2ccccc2s1)c1ccc(Cn2cc(COc3ccc(C(=O)Nc4nc5ccccc5s4)cc3)nn2)cc1` [compound 8], the “Triazole formation from building blocks in presence of BACE1” value is “observed”.
